The IC50 is the concentration needed to halve the response being measured. High values mean weaker potency, low ones greater potency.

This note sets out measurements from patent US9605008B2, “Benzyl-1H-pyrazolo[3,4-b]pyridines and use thereof” (BAYER PHARMA AKTIENGESELLSCHAFT, priority 2013, dated 2017).

Molecules are shown by their SMILES.

Assay [1] addresses human phosphodiesterase 5 (PDE 5) (Homo sapiens (Human), UniProt O76074). The experiment in a line: Inhibition of human phosphodiesterase 5 (PDE 5). In kind it is biochemical. The conditions noted are these: PDE 5 preparation from human platelets; [8-3H] cGMP substrate, SPA; in some cases means of individual determinations. On the procedure: B-3. Inhibition of Human Phosphodiesterase 5 (PDE 5)
PDE 5 preparations are obtained from human platelets by disruption (Microfluidizer®, 800 bar, 3 passes), followed by centrifugation (75000 g, 60 min, 4° C.) and ion exchange chromatography of the supernatant on a Mono Q 10/10 column (linear sodium chloride gradient, elution with a 0.2-0.3M solution of sodium chloride in buffer (20 mM Hepes pH 7.2, 2 mM magnesium chloride). Fractions having PDE 5 activity are combined (PDE 5 preparation) and stored at −80° C.
To determine their in vitro action on human PDE 5, the test substances are dissolved in 100% DMSO and serially diluted. Typically, dilution series (1:3) from 200 μM to 0.091 μM are prepared (resulting final concentrations in the test: 4 μM to 0.0018 μM). In each case 2 μl of the diluted substance solutions are placed into the wells of microtitre plates (Isoplate-96/200W; Perkin Elmer). Subsequently, 50 μl of a dilution of the above-described PDE 5 preparation are added. The dilution of the PDE 5 preparation is chosen such that during the later incubation less than 70% of the substrate are converted (typical dilution: 1:100; dilution buffer: 50 mM tris/hydrochloric acid pH 7.5, 8.3 mM magnesium chloride, 1.7 mM EDTA, 0.2% BSA). The substrate, [8-^3H] cyclic guanosine-3′,5′-monophosphate (1 μCi/μl; Perkin Elmer) is diluted 1:2000 with assay buffer (50 mM tris/hydrochloric acid pH 7.5, 8.3 mM magnesium chloride, 1.7 mM EDTA) to a concentration of 0.0005 μCi/μl. By addition of 50 μl (0.025 μCi) of the diluted substrate, the enzyme reaction is finally started. The test mixtures are incubated at room temperature for 60 min and the reaction is stopped by adding 25 μl of a suspension of 18 mg/ml yttrium scintillation proximity beads in water (phosphodiesterase beads for SPA assays, RPNQ 0150, Perkin Elmer). The microtitre plates are sealed with a film and left to stand at room temperature for 60 min. Subsequently, the plates are analysed for 30 s per well in a Microbeta scintillation counter (Perkin Elmer). IC50 values are determined using the graphic plot of the substance concentration against percentage PDE 5 inhibition.

For assay [2], the target named is recombinant guanylate cyclase reporter cell line (Rattus norvegicus (Rat), UniProt P19686+P20595). The experiment in a line: Effect on a recombinant guanylate cyclase reporter cell line. In kind it is cell-based. To be noted: in some cases means of individual determinations. On the procedure: B-2. Effect on a Recombinant Guanylate Cyclase Reporter Cell Line
Sequence of recombinant guanylate cyclase reporter cell line (P19686 whole entry): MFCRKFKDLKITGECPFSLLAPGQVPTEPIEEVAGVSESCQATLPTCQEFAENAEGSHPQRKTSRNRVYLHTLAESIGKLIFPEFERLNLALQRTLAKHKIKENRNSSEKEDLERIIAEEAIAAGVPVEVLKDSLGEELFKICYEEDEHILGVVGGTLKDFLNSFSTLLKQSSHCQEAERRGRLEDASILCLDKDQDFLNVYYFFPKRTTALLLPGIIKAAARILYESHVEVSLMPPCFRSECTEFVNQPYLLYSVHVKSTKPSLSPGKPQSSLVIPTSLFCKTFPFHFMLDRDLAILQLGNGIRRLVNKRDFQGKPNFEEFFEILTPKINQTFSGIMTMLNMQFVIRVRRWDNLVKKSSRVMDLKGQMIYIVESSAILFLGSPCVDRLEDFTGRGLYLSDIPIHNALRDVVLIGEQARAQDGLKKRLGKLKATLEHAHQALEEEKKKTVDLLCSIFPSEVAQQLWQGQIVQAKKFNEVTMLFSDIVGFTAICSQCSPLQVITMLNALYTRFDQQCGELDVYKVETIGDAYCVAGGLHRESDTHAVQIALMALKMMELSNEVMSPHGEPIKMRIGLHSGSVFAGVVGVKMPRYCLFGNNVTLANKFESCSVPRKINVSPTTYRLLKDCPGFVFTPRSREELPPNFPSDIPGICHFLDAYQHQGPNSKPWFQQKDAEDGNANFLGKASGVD
Sequence of recombinant guanylate cyclase reporter cell line (P20595 whole entry): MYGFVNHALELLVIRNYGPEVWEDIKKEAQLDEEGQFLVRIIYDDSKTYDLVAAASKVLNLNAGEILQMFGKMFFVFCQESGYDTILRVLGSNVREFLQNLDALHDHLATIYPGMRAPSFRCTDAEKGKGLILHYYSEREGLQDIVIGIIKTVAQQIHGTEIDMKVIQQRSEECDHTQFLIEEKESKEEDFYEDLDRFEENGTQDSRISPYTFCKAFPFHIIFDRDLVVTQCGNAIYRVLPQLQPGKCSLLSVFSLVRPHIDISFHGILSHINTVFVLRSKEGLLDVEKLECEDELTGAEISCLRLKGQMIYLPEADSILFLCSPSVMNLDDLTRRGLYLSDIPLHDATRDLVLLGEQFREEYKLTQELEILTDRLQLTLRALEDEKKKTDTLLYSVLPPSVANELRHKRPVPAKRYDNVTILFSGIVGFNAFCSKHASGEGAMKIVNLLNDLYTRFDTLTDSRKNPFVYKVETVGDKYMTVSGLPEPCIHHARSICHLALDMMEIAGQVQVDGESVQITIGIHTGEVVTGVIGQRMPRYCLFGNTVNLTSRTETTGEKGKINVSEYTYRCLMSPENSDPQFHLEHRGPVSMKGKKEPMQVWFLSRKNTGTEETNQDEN
The cellular activity of the compounds according to the invention is determined using a recombinant guanylate cyclase reporter cell line, as described in F. Wunder et al., Anal. Biochem. 339, 104-112 (2005).
Representative values (MEC=minimum effective concentration) for the compounds according to the invention are shown in the table below (Table 1; in some cases as means of individual determinations): […]

Take `Cc1ccc2c(-c3nnc4c(n3)NC(=O)C4(C)C)nn(Cc3ccc(C)c(F)c3)c2n1` [Example 18, 3-[1-(3-Fluoro-4-methylbenzyl)-6-methyl-1H-pyrazolo[3,4-b]pyridin-3-yl]-7,7-dimethyl-5,7-dihydro-6H-pyrrolo[2,3-e][1,2,4]triazin-6-one]: the IC50 in assay [1] came out at 10 nM. The “MEC (minimum effective concentration)” value in assay [2] was 1000 nM.

As for `Cc1ccc2c(-c3nnc4c(n3)NC(=O)C4(C)C)nn(Cc3ccc(Cl)cc3F)c2n1` [Example 10, 3-[1-(4-Chloro-2-fluorobenzyl)-6-methyl-1H-pyrazolo[3,4-b]pyridin-3-yl]-7,7-dimethyl-5,7-dihydro-6H-pyrrolo[2,3-e][1,2,4]triazin-6-one], the IC50 in assay [1] stood at 4.5 nM. The “MEC (minimum effective concentration)” value in assay [2] is reported as 300 nM. In turn, `Cc1nc2c(cc1F)c(-c1nnc3c(n1)NC(=O)C3(C)C)nn2Cc1ccc(F)cc1F` [Example 7, 3-[1-(2,4-Difluorobenzyl)-5-fluoro-6-methyl-1H-pyrazolo[3,4-b]pyridin-3-yl]-7,7-dimethyl-5,7-dihydro-6H-pyrrolo[2,3-e][1,2,4]triazin-6-one] displayed an IC50 in assay [1] of 21 nM. For the same compound, the “MEC (minimum effective concentration)” value in assay [2] was 100 nM. For `Cc1ccc2c(-c3nnc4c(n3)NC(=O)C43CC3)nn(Cc3cccc(F)c3F)c2n1` [Example 24, 3′-[1-(2,3-Difluorobenzyl)-6-methyl-1H-pyrazolo[3,4-b]pyridin-3-yl]spiro[cyclopropane-1,7′-pyrrolo[2,3-e][1,2,4]triazin]-6′(5′H)-one], in that order: 21 nM and 300 nM. The like results for `Cc1ccc2c(-c3nnc4c(n3)NC(=O)C4(C)C)nn(Cc3c(F)ccc(F)c3F)c2n1` [Example 12, 7,7-Dimethyl-3-[6-methyl-1-(2,3,6-trifluorobenzyl)-1H-pyrazolo[3,4-b]pyridin-3-yl]-5,7-dihydro-6H-pyrrolo[2,3-e][1,2,4]triazin-6-one] were, in that order, 21 nM and 300 nM. The compound `Cc1ccc(Cn2nc(-c3nnc4c(n3)NC(=O)C43CC3)c3ccc(C)nc32)c(F)c1` [Example 22, 3′-[1-(2-Fluoro-4-methylbenzyl)-6-methyl-1H-pyrazolo[3,4-b]pyridin-3-yl]spiro[cyclopropane-1,7′-pyrrolo[2,3-e][1,2,4]triazin]-6′(5′H)-one] gave an IC50 in assay [1] of 16 nM. In assay [1], `Cc1nc2c(cc1F)c(-c1nnc3c(n1)NC(=O)C3(C)C)nn2Cc1cccc(F)c1F` [Example 1, 3-[1-(2,3-Difluorobenzyl)-5-fluoro-6-methyl-1H-pyrazolo[3,4-b]pyridin-3-yl]-7,7-dimethyl-5,7-dihydro-6H-pyrrolo[2,3-e][1,2,4]triazin-6-one] registered an IC50 of 5 nM. For the same compound, in assay [2], the “MEC (minimum effective concentration)” value is listed as 30 nM. For `Cc1ccc2c(-c3nnc4c(n3)NC(=O)C4(C)C)nn(Cc3cccc(Cl)c3F)c2n1` [Example 14, 3-[1-(3-Chloro-2-fluorobenzyl)-6-methyl-1H-pyrazolo[3,4-b]pyridin-3-yl]-7,7-dimethyl-5,7-dihydro-6H-pyrrolo[2,3-e][1,2,4]triazin-6-one], in that order: 63 nM and 300 nM.

In turn, `Cc1nc2c(cc1F)c(-c1nnc3c(n1)NC(=O)C3(C)C)nn2Cc1cccc(Cl)c1F` [Example 13, 3-[1-(3-Chloro-2-fluorobenzyl)-5-fluoro-6-methyl-1H-pyrazolo[3,4-b]pyridin-3-yl]-7,7-dimethyl-5,7-dihydro-6H-pyrrolo[2,3-e][1,2,4]triazin-6-one] yielded an IC50 in assay [1] of 42 nM. Moreover, the “MEC (minimum effective concentration)” value in assay [2] is listed as 100 nM.

`Cc1ccc(Cn2nc(-c3nnc4c(n3)NC(=O)C4(C)C)c3cc(F)c(C)nc32)cc1F` [Example 17, 3-[5-Fluoro-1-(3-fluoro-4-methylbenzyl)-6-methyl-1H-pyrazolo[3,4-b]pyridin-3-yl]-7,7-dimethyl-5,7-dihydro-6H-pyrrolo[2,3-e][1,2,4]triazin-6-one]: in assay [1], 8 nM corresponded to half-maximal inhibition (IC50). Moreover, the “MEC (minimum effective concentration)” value in assay [2] turned out to be 300 nM.

In turn, `Cc1nc2c(cc1F)c(-c1nnc3c(n1)NC(=O)C3(C)C)nn2Cc1c(F)cccc1F` [Example 15, 3-[1-(2,6-Difluorobenzyl)-5-fluoro-6-methyl-1H-pyrazolo[3,4-b]pyridin-3-yl]-7,7-dimethyl-5,7-dihydro-6H-pyrrolo[2,3-e][1,2,4]triazin-6-one] had an IC50 in assay [1] of 67 nM. Further, the “MEC (minimum effective concentration)” value in assay [2] was found to be 65 nM.

In turn, `Cc1ccc(Cn2nc(-c3nnc4c(n3)NC(=O)C4(C)C)c3cc(F)c(C)nc32)c(F)c1F` [Example 19, 3-[1-(2,3-Difluoro-4-methylbenzyl)-5-fluoro-6-methyl-1H-pyrazolo[3,4-b]pyridin-3-yl]-7,7-dimethyl-5,7-dihydro-6H-pyrrolo[2,3-e][1,2,4]triazin-6-one] gave an IC50 in assay [1] of 0.25 nM. Besides, the “MEC (minimum effective concentration)” value in assay [2] came to 300 nM. For `Cc1ccc2c(-c3nnc4c(n3)NC(=O)C4(C)C)nn(Cc3ccc(F)cc3F)c2n1` [Example 8, 3-[1-(2,4-Difluorobenzyl)-6-methyl-1H-pyrazolo[3,4-b]pyridin-3-yl]-7,7-dimethyl-5,7-dihydro-6H-pyrrolo[2,3-e][1,2,4]triazin-6-one], in that order: 34 nM and 300 nM. The like results for `Cc1ccc2c(-c3nnc4c(n3)NC(=O)C4(C)C)nn(Cc3ccc(C)c(F)c3F)c2n1` [Example 20, 3-[1-(2,3-Difluoro-4-methylbenzyl)-6-methyl-1H-pyrazolo[3,4-b]pyridin-3-yl]-7,7-dimethyl-5,7-dihydro-6H-pyrrolo[2,3-e][1,2,4]triazin-6-one] were, in that order, 0.65 nM and 300 nM. The like results for `Cc1nc2c(cc1F)c(-c1nnc3c(n1)[N-]C(=O)C3(C)C)nn2Cc1cccc(F)c1F.[Na+]` [Example 2, Sodium 3-[1-(2,3-difluorobenzyl)-5-fluoro-6-methyl-1H-pyrazolo[3,4-b]pyridin-3-yl]-7,7-dimethyl-6-oxo-6,7-dihydropyrrolo[2,3-e][1,2,4]triazin-5-ide] were, in that order, 5 nM and 30 nM. The compound `Cc1ccc2c(-c3nnc4c(n3)NC(=O)C4(C)C)nn(Cc3c(F)cccc3F)c2n1` [Example 16, 3-[1-(2,6-Difluorobenzyl)-6-methyl-1H-pyrazolo[3,4-b]pyridin-3-yl]-7,7-dimethyl-5,7-dihydro-6H-pyrrolo[2,3-e][1,2,4]triazin-6-one] returned an IC50 in assay [1] of 24 nM. In assay [2], the “MEC (minimum effective concentration)” value was found to be 300 nM.

Compound `Cc1nc2c(cc1F)c(-c1nnc3c(n1)NC(=O)C3(C)C)nn2Cc1ccc(Cl)cc1F` [Example 9, 3-[1-(4-Chloro-2-fluorobenzyl)-5-fluoro-6-methyl-1H-pyrazolo[3,4-b]pyridin-3-yl]-7,7-dimethyl-5,7-dihydro-6H-pyrrolo[2,3-e][1,2,4]triazin-6-one] returned an IC50 in assay [1] of 6 nM. In addition, the “MEC (minimum effective concentration)” value in assay [2] is reported as 300 nM. In assay [1], `Cc1ccc(Cn2nc(-c3nnc4c(n3)NC(=O)C4(C)C)c3ccc(C)nc32)c(F)c1` [Example 6, 3-[1-(2-Fluoro-4-methylbenzyl)-6-methyl-1H-pyrazolo[3,4-b]pyridin-3-yl]-7,7-dimethyl-5,7-dihydro-6H-pyrrolo[2,3-e][1,2,4]triazin-6-one] returned an IC50 of 2 nM. The “MEC (minimum effective concentration)” value in assay [2] is reported as 200 nM.
